# Data from US20230089715A1, “MASITINIB FOR THE TREATMENT OF A MULTIPLE SCLEROSIS PATIENT SUBPOPULATION” (AB SCIENCE, priority 2020, published 2023).
# System: patients with progressive multiple sclerosis (PPMS or non-active SPMS)
# Experiment: Study AB07002: randomized, double-blind, placebo-controlled phase 3 study, overall EDSS change from baseline
# Format: in vivo, human
# Set-up: key to LSM EDSS, MAS (overall EDSS change from baseline): LS mean EDSS change from baseline; positive value = worsening
# Settings: 4.5 mg/kg/day oral; for ΔEDSS (between group difference, treatment-effect vs placebo) / LSM EDSS, MAS (overall EDSS change from baseline) / R % (relative difference in ΔEDSS with respect to full analysis dataset): 96 weeks; for treatment-effect with respect to placebo (EDSS): non-active SPMS
# Description: An international, multicenter, randomized, double-blind, placebo-controlled phase 3 study was conducted with the objective to evaluate oral masitinib at a dose of 4.5 mg/kg/day as a treatment for progressive multiple sclerosis (progressive MS), as defined hereinabove. […] Eligible patients were treated for 96 weeks with masitinib at a dose of 4.5 mg/kg/day (mg per kilo body weight per day) or with placebo. Primary endpoint was overall EDSS change from baseline using a repeated analysis of covariance model (i.e., ANCOVA GEE model on all measurements from week 12 (W12) to week 96 (W96)). Results are expressed as least-squares means difference, illustrating the progression of EDSS score, that is to say the change over time in the EDSS score or in other words the difference between the EDSS score at baseline and the EDSS score after treatment with masitinib or with placebo (a positive value indicates a worsening of the patient). Treatment-effect is reported as between-group difference (ΔLSM, negative value indicates a beneficial effect of treatment with masitinib as compared to treatment with placebo). […] Patients suffering from a disease other than MS that would better explain their neurological clinical signs and symptoms and/or lesions observed with magnetic resonance imaging (“MRI lesions”) were excluded. Subpopulation analyses of primary endpoint data from study AB07002 assessed the impact of the clinical markers ‘time from onset’ with respect to baseline (i.e., date of treatment initiation), derived from the estimated date of first clinical MS symptom(s), or ‘time from diagnosis’ with respect to baseline (i.e., date of treatment initiation), on masitinib efficacy in patients with progressive MS (see Example 3). ‘Time from onset’ is derived from the date (year/month/day, year/month, or year) of first clinical symptom(s) with duration calculated from date of treatment initiation. The date of first symptom(s) is typically determined retrospectively from medical history, for example from medical records and patient/caregiver historical recall of MS related symptoms following a clinically definite diagnosis. Imputation of missing data can be handled using various methods, one example of which is the following approach: if the information regarding day is missing, the day is considered to be the last day of the month; if the day and month are missing, the day is considered to be the last day of June. ‘Time from diagnosis’ of progressive MS, is ideally based on a clinically definite diagnosis of progressive MS as determined by a MS specialist neurologist. In practice it is derived from the date (year/month/day, year/month, or year) of first clinically definite diagnosis of progressive MS, i.e., PPMS or non-active SPMS, with duration calculated from date of treatment initiation. At the time of MS diagnosis, a provisional disease course should be specified (relapsing-remitting, primary progressive, or secondary progressive) and whether the course is active or not (non-active) and progressive or not based on the previous year's history. The phenotype should be periodically re-evaluated based on accumulated information. Comparison of subpopulation analyses with respect to the corresponding full analysis dataset (see Table 4) is reported as relative difference in ΔEDSS (R %). A large positive R % value indicates a subpopulation that receives greater benefit from masitinib treatment, while a negative R % value indicates a diminished treatment-effect or lack of discernable treatment-effect in the subpopulation.
# [1] = nSPMS, T(diag) > 2 Y and T(onset) > 5 Y
structure (smiles),measurement,setting,value
"Cc1ccc(NC(=O)c2ccc(CN3CCN(C)CC3)cc2)cc1Nc1nc(-c2cccnc2)cs1 [masitinib, 4-(4-methylpiperazin-1-ylmethyl)-N-[4-methyl-3-(4-pyridin-3ylthiazol-2-ylamino)phenyl]benzamide]","ΔEDSS (between group difference, treatment-effect vs placebo)","Progressive MS, T(diag) ≤ 1 Y",0.261
same,"LSM EDSS, MAS (overall EDSS change from baseline)","Progressive MS, T(diag) ≤ 2 Y",0.163
same,"LSM EDSS, MAS (overall EDSS change from baseline)","Progressive MS, T(diag) ≤ 3 Y",0.056
same,"ΔEDSS (between group difference, treatment-effect vs placebo)","Progressive MS, T(diag) ≤ 3 Y",0.053
same,"LSM EDSS, MAS (overall EDSS change from baseline)","Progressive MS, T(diag) ≤ 4 Y",0.075
same,"ΔEDSS (between group difference, treatment-effect vs placebo)","Progressive MS, T(diag) ≤ 4 Y",−0.028
same,"LSM EDSS, MAS (overall EDSS change from baseline)","Progressive MS, T(onset) > 1 Y",0.012
same,R % (relative difference in ΔEDSS with respect to full analysis dataset),"Progressive MS, T(onset) > 1 Y",−5%
same,"ΔEDSS (between group difference, treatment-effect vs placebo)","Progressive MS, T(onset) > 1 Y",−0.094
same,"LSM EDSS, MAS (overall EDSS change from baseline)","Progressive MS, T(onset) > 2 Y",0.004
same,R % (relative difference in ΔEDSS with respect to full analysis dataset),"Progressive MS, T(onset) > 2 Y",1%
same,"ΔEDSS (between group difference, treatment-effect vs placebo)","Progressive MS, T(onset) > 2 Y",−0.100
same,"LSM EDSS, MAS (overall EDSS change from baseline)","Progressive MS, T(onset) > 3 Y",−0.010
same,R % (relative difference in ΔEDSS with respect to full analysis dataset),"Progressive MS, T(onset) > 3 Y",20%
same,"ΔEDSS (between group difference, treatment-effect vs placebo)","Progressive MS, T(onset) > 3 Y",−0.119
same,"LSM EDSS, MAS (overall EDSS change from baseline)","Progressive MS, T(onset) > 4 Y",−0.027
same,R % (relative difference in ΔEDSS with respect to full analysis dataset),"Progressive MS, T(onset) > 4 Y",29%
same,"ΔEDSS (between group difference, treatment-effect vs placebo)","Progressive MS, T(onset) > 4 Y",−0.128
same,"LSM EDSS, MAS (overall EDSS change from baseline)","Progressive MS, T(onset) > 5 Y",−0.031
same,"ΔEDSS (between group difference, treatment-effect vs placebo)","Progressive MS, T(onset) > 5 Y",−0.156
same,R % (relative difference in ΔEDSS with respect to full analysis dataset),"Progressive MS, T(onset) > 5 Y, 4.5 mg/kg/day",58%
same,"LSM EDSS, MAS (overall EDSS change from baseline)","Progressive MS, T(onset) ≤ 3 Y",0.106
same,"ΔEDSS (between group difference, treatment-effect vs placebo)","Progressive MS, T(onset) ≤ 3 Y",0.346
same,"LSM EDSS, MAS (overall EDSS change from baseline)","Progressive MS, T(onset) ≤ 4 Y",−0.000
same,"ΔEDSS (between group difference, treatment-effect vs placebo)","Progressive MS, T(onset) ≤ 4 Y",0.146
same,"LSM EDSS, MAS (overall EDSS change from baseline)","Progressive MS, T(onset) ≤ 5 Y",0.259
same,"LSM EDSS, MAS (overall EDSS change from baseline)","Progressive MS, complement T(diag) ≤ 2 Y or T(onset) ≤ 5 Y",0.173
same,"LSM EDSS, MAS (overall EDSS change from baseline)","Progressive MS, full analysis dataset",0.008
same,"ΔEDSS (between group difference, treatment-effect vs placebo)","Progressive MS, full analysis dataset, 4.5 mg/kg/day",−0.099
same,"ΔEDSS (between group difference, treatment-effect vs placebo)","Progressive MS, full analysis dataset, listed as Masitinib, 4.5 mg/kg/day",significant slowing of EDSS progression
same,"LSM EDSS, MAS (overall EDSS change from baseline)","nSPMS, T(diag) > 1 Y",−0.039
same,R % (relative difference in ΔEDSS with respect to full analysis dataset),"nSPMS, T(diag) > 1 Y",6%
same,"ΔEDSS (between group difference, treatment-effect vs placebo)","nSPMS, T(diag) > 1 Y",−0.101
same,"LSM EDSS, MAS (overall EDSS change from baseline)",[1],−0.051
same,"ΔEDSS (between group difference, treatment-effect vs placebo)",[1],−0.118
same,R % (relative difference in ΔEDSS with respect to full analysis dataset),"nSPMS, T(diag) > 2 Y and T(onset) > 5 Y, 4.5 mg/kg/day",24%
same,"LSM EDSS, MAS (overall EDSS change from baseline)","nSPMS, T(diag) > 2 Y",−0.039
same,R % (relative difference in ΔEDSS with respect to full analysis dataset),"nSPMS, T(diag) > 2 Y",7%
same,"LSM EDSS, MAS (overall EDSS change from baseline)","nSPMS, T(diag) > 3 Y",−0.045
same,R % (relative difference in ΔEDSS with respect to full analysis dataset),"nSPMS, T(diag) > 3 Y",13%
same,"LSM EDSS, MAS (overall EDSS change from baseline)","nSPMS, T(diag) > 4 Y",−0.050
same,R % (relative difference in ΔEDSS with respect to full analysis dataset),"nSPMS, T(diag) > 4 Y",29%
same,"ΔEDSS (between group difference, treatment-effect vs placebo)","nSPMS, T(diag) > 4 Y",−0.123
same,"LSM EDSS, MAS (overall EDSS change from baseline)","nSPMS, T(diag) ≤ 4 Y",0.036
same,"ΔEDSS (between group difference, treatment-effect vs placebo)","nSPMS, T(diag) ≤ 4 Y",−0.004
same,"LSM EDSS, MAS (overall EDSS change from baseline)","nSPMS, T(onset) > 1 Y",−0.035
same,R % (relative difference in ΔEDSS with respect to full analysis dataset),"nSPMS, T(onset) > 1 Y",0%
same,"ΔEDSS (between group difference, treatment-effect vs placebo)","nSPMS, T(onset) > 1 Y",−0.095
same,"LSM EDSS, MAS (overall EDSS change from baseline)","nSPMS, T(onset) > 2 Y",−0.035
same,R % (relative difference in ΔEDSS with respect to full analysis dataset),"nSPMS, T(onset) > 2 Y",0%
same,"ΔEDSS (between group difference, treatment-effect vs placebo)","nSPMS, T(onset) > 2 Y",−0.095
same,"LSM EDSS, MAS (overall EDSS change from baseline)","nSPMS, T(onset) > 3 Y",−0.037
same,R % (relative difference in ΔEDSS with respect to full analysis dataset),"nSPMS, T(onset) > 3 Y",7%
same,"ΔEDSS (between group difference, treatment-effect vs placebo)","nSPMS, T(onset) > 3 Y",−0.102
same,"LSM EDSS, MAS (overall EDSS change from baseline)","nSPMS, T(onset) > 4 Y",−0.040
same,R % (relative difference in ΔEDSS with respect to full analysis dataset),"nSPMS, T(onset) > 4 Y",16%
same,"ΔEDSS (between group difference, treatment-effect vs placebo)","nSPMS, T(onset) > 4 Y",−0.110
same,"LSM EDSS, MAS (overall EDSS change from baseline)","nSPMS, T(onset) > 5 Y",−0.050
same,R % (relative difference in ΔEDSS with respect to full analysis dataset),"nSPMS, T(onset) > 5 Y",23%
same,"LSM EDSS, MAS (overall EDSS change from baseline)","nSPMS, full analysis dataset",−0.035
same,"ΔEDSS (between group difference, treatment-effect vs placebo)","nSPMS, full analysis dataset, 4.5 mg/kg/day",−0.095
same,"ΔEDSS (between group difference, treatment-effect vs placebo)","nSPMS, full analysis dataset, listed as Masitinib, 4.5 mg/kg/day",significant slowing of EDSS progression
same,treatment-effect with respect to placebo (EDSS),time from diagnosis to treatment initiation of no more than 2 year,no discernable treatment-effect
same,treatment-effect with respect to placebo (EDSS),time from onset to treatment initiation of no more than 5 year,no discernable treatment-effect
